Here are results for 3 substances from patent publication US20240082342A1, “PEPTIDE THERAPEUTICS FOR INCREASING LUNG CELL VIABILITY” (BOARD OF REGENTS, THE UNIVERSITY OF TEXAS SYSTEM, priority 2018, published 2024).

For assay [1], the system named is A2ECs treated with IL-17A. In words: A2ECs exposed to IL-17A in vitro. In kind it is cell-based, mouse. Particulars: for IL-17A-induced p53 and PAI-1 expression, and apoptosis: A2ECs from WT mice, IL-17A 100 ng/ml. The protocol:
FIGS. 49A-49B show the role of IL-17A in PTS-induced p53, PAI-1 expression, and apoptosis in A2ECs. (A) IL-17A^−/− mice resist PTS-induced p53 expression and apoptosis in A2ECs. Mice were kept in ambient AIR or exposed to 20 weeks of PTS. A2ECs isolated from WT and IL-17A^−/− mice in AIR or exposed to PTS were analyzed for acetylated/total p53, Sirt1 and activated caspase-3 to assess apoptosis by Western blotting. (B) CSP inhibits IL-17A-induced p53 and PAI-1 expression and apoptosis in A2ECs in vitro. A2ECs isolated from WT mice were treated with PBS or IL-17A (100 ng/ml) in the presence or absence of CSP or control peptide, CP for 24 h in culture dishes. A2EC lysates were immunoblotted for p53, PAI-1, Cl./total caspase-3 and β-actin. WT mice exposed to IL-17A (FIG. 48D) and PTS (FIG. 46A) induce p53 acetylation and Cav1 expression, while inhibiting Sirt1 in A2ECs.
FIGS. 58A-58B show a 7-amino acid fragment of CSP, CSP7 Inhibits IL-17A-induced A2EC apoptosis. (A) Fragments of CSP were synthesized as shown. (B) A2ECs were treated with CSP or its fragments, or CP, 2 h after exposure of cells to IL-17A. A2EC lysates were immunoblotted for acetylated/total p53 and active/total caspase-3 24 h after IL-17A exposure. β-actin levels were evaluated to assess equal loading.
Increased p53 and apoptosis in A2ECs of mice exposed to PTS or IL-17A provided evidence that PTS acts by increasing IL-17A. To confirm that increased IL-17A contributes to the induction of p53 and PAI-1 expression, and apoptosis in A2ECs during PTS-induced lung injury, IL-17A-deficient mice were exposed to 20 weeks of PTS and control mice were kept in ambient air. A2ECs were tested for p53^AC, p53 and Sirt1 expression, and apoptosis. The responses were compared with changes in A2ECs isolated from WT mice exposed to 20 weeks of PTS or AIR. There was marked induction of p53^AC and p53 levels, and apoptosis with parallel suppression of Sirt1 expression in WT mice exposed to 20 weeks of PTS. […] To confirm mitigation of PTS induced lung injury by CSP or CSP7 involves suppression of IL-17A-induced p53, PAI-1 and apoptosis, A2ECs isolated from WT mice were next treated with IL-17A (100 ng/ml) with or without CSP, CSP7 or CP. Control cells were treated with vehicle (PBS) alone. The A2EC lysates were tested for p53 and p53-mediated downstream induction of PAI-1, and apoptosis. […] Further, induction of miR-34a increased p53 and apoptosis in A2ECs without exposure to tobacco smoke, while inhibition of miR-34a using miR-34a antisense (miR-34a-AS) reduced cigarette smoke induced p53 expression and apoptosis. Results of both in vitro and in vivo experiments support an intricate link between miR-34a, p53^AC, p53 and p53-mediated induction of PAI-1 expression, and A2EC apoptosis during PTS lung injury.

The test system of assay [2] is WT mice with CS-LI. The assay can be described thus: Chronic CS/TSE lung injury in WT mice treated by nebulization or IP injection. The class given is in vivo, mouse. Particulars: for lung volume (μCT): 20 weeks CS. The protocol: Pulmonary function tests were performed immediately before CT imaging and before mice were killed, as previously described (DeCologne N et al., Eur Respir J. 35:176-85, 2010). Briefly, mice were anesthetized with a ketamine/xylazine mixture. Anesthetized mice were intubated by inserting a sterile, 20-gauge intravenous cannula through the vocal cords into the trachea. Elastance, compliance, and total lung resistance were then measured (SCIREQ, Tempe, AZ). The “snapshot perturbation method” was used to study lung function in the CBB injury model. This method measures total lung resistance, compliance, and elastance of the entire respiratory system. Increased total lung resistance in the CBB model may reflect lung contraction associated with pleural rind formation with concurrent distortion of the airways. The flexiVent was set to a tidal volume of […] at a frequency of 150 breaths/min against 2-3 cm H2O positive end-expiratory pressure, according to manufacturer's specifications. The mice were maintained under anesthesia using isofluorane throughout the pulmonary function testing.
After ketamine/xylazine injection, mice were anesthetized further using an isoflurane/02 mixture to ensure that mice remained deeply anesthetized and to minimize spontaneous breaths. The Explore Locus Micro-CT Scanner (General Electric, GE Healthcare, Wauwatosa, WI) was used for CT imaging. CT scans were performed during full inspiration and at a resolution of […]. Lung volumes were calculated from lung renditions collected at full inspiration. Microview software was used to analyze lung volumes and render three-dimensional images (Tucker T A et al., Am J Respir Cell Mol Biol. 50:316-27, 2014).
Wild type (WT) mice of the C57BL/6J strain (n=10/group) were kept in ambient air or were TSE for 4 hour/day, 5 days a week as described. […]
Micro-computed Tomography (pCT) scanning and measurements of lung volume and pulmonary function. […] Lung volumes were calculated from lung renditions collected at full inspiration using Microview software. […]

“Also recorded” adds a separate entry of the source.

For the substance “DGIWKASFTTFTVTKYWFYR (listed as Homo sapiens) [CSP, 20 residue caveolin-1 scaffolding domain peptide]”, in assay [1], the “IL-17A-induced p53 and PAI-1 expression, and apoptosis” value was “inhibited IL-17A-induced p53 and PAI-1 expression, and apoptosis”.
On to “FTTFTVT (listed as Homo sapiens) [CSP7, heptapeptide fragment of the caveolin-1 scaffolding domain peptide CSP]”, for which the “lung volume (μCT)” value in assay [2] is on record as “significantly improved”. In addition, the “lung volume, compliance, elastance and resistance” value in assay [2] (IP or Neb, 20 weeks TSE/CS) is “reduced lung volume, compliance, elastance and resistance; also recorded: trend of reversal; also recorded: significantly improved”. For the same substance, the “p53 and caspase-3 activation” value in assay [1] (A2ECs + IL-17A, CSP deletion fragments) is “inhibited p53 and caspase-3 activation”. Besides, in assay [1], the “IL-17A-induced p53 and PAI-1 expression, and apoptosis” value is “inhibited IL-17A-induced p53 and PAI-1 expression, and apoptosis”.
“WGIDKAFFTTSTVTYKWFRY [CP, scrambled control peptide with the same amino acid composition as CSP, reference compound]”: the “lung volume (μCT)” value in assay [2] is “persistently high lung volumes”.
